According to patent US20250114387A1, “PHARMACEUTICAL COMPOSITION COMPRISING ENAVOGLIFLOZIN FOR PREVENTING OR TREATING OBESITY IN CANINE ANIMALS” (DAEWOONG PHARMACEUTICAL CO., LTD., priority 2022, published 2025):

Legend:
[1] = tested on: obese dogs; test: Clinical trial in obese dogs: hematological tests; type: in vivo
Description: (§1) A total of 20 dogs were selected and divided into 4 groups with 5 dogs in each group: a normal obese control (OC); hereinafter, referred to as a control (OC)), an enavogliflozin 0.2-administered group, an enavogliflozin 0.5-administered group, and an enavogliflozin 1-administered group. The control was fed regular feed, and the enavogliflozin-administered groups were fed regular feed supplemented with enavogliflozin at doses of 0.2, 0.5, or 1 mg/kg, respectively. The feed was supplemented with enavogliflozin once a day for 8 weeks and given orally.
Hematological tests were performed on the day before the first administration of enavogliflozin and once every two weeks for the next 10 weeks. A portion of the blood collected on the day of the test was stored in a CBC tube containing the anticoagulant EDTA-2K to assess a red blood cell (RBC) count, hematocrit (Hct), a hemoglobin (Hb) concentration, a white blood cell (WBC) count, and a platelet (PLT) count using an automated hematology analyzer (ADVIA 2120i™, Siemens Healthcare Diagnostics, Vienna, Austria).

[2] = tested on: obese dogs; test: Clinical trial in obese dogs: serum biochemical parameters; type: in vivo; conditions: for ALB / ALP / ALT / AST / BUN / CPK / CRE / GGT / Glu / TC / TP / TG: serum
Description: as §1
Biological analysis was performed as follows. A portion of the blood collected on the day of the test was transferred to a vacuum tube containing a coagulation activator, left at room temperature for 15 to 20 minutes to solidify, and then centrifuged at 3000 rpm, thereby obtaining serum. Serum biochemical parameters were evaluated using a Hitachi 7180 device (Hitachi, Tokyo, Japan). The evaluated biochemical parameters are aspartate aminotransferase (AST), alanine aminotransferase (ALT), alkaline phosphatase (ALP), creatine phosphokinase (CPK), total bilirubin (TBIL), glucose (GLU), total cholesterol (TC), triglycerides (TG), total protein (TP), albumin (ALB), gamma-glutamyl transpeptidase (GGT), blood urea nitrogen (BUN), creatinine (CRE), inorganic phosphorus (IP), calcium (Ca), and C-reactive protein (CRP).

[3] = tested on: obese dogs; test: Clinical trial in obese dogs: serum insulin concentration (ELISA); type: in vivo; conditions: for Insulin: serum
Description: as §1
Serum insulin concentrations were measured 2, 4, 6, 8, and 10 weeks after the start of enavogliflozin administration using a Quantikine Canine Insulin ELISA kit (Catalog no. DINS00, R&D Systems, Minneapolis, MN, USA) according to the manufacturer's protocol. Urine biochemical parameters were evaluated using urine test strips 2, 4, 6, and 10 weeks after the start of enavogliflozin administration, and urinary glucose (GLU) excretion was measured using UriSCAN® Strip (YD Diagnostics Corp., Yong-in, Korea).

[4] = tested on: obese dogs; test: Clinical trial in obese dogs: feed intake; type: in vivo; conditions: for feed intake compared to the control (OC): during the 10-week experimental period
Description: A total of 20 dogs were selected and divided into 4 groups with 5 dogs in each group: a normal obese control (OC); hereinafter, referred to as a control (OC)), an enavogliflozin 0.2-administered group, an enavogliflozin 0.5-administered group, and an enavogliflozin 1-administered group. The control was fed regular feed, and the enavogliflozin-administered groups were fed regular feed supplemented with enavogliflozin at doses of 0.2, 0.5, or 1 mg/kg, respectively. […]

[5] = Non-clinical toxicity test: 13 weeks repeated oral administration, changes in body weight; type: in vivo, beagles
Description: Changes in body weight were confirmed after administering enavogliflozin to four female and four male 6-month-old normal beagles at 0 (control, gelatin capsule), 1, 3, and 6 mg/kg/day for 13 weeks. The above amounts of enavogliflozin were charged in a gelatin capsule and administered daily.

[6] = 0.2 mg/kg once a day oral for 8 weeks
[7] = 0.5 mg/kg once a day oral for 8 weeks
[8] = 1 mg/kg once a day oral for 8 weeks
[9] = obese dogs, 0.2 mg/kg once a day oral for 8 weeks
[10] = obese dogs, 0.5 mg/kg once a day oral for 8 weeks
[11] = obese dogs, 1 mg/kg once a day oral for 8 weeks

## OC[C@H]1O[C@@H](c2cc(Cc3ccc(C4CC4)cc3)c(Cl)c3c2CCO3)[C@H](O)[C@@H](O)[C@@H]1O [Enavogliflozin, enavogliflozin]
[1]; [6]
  Hb: 16.34 ± 2.68 g/dL
  Hct: 49.86 ± 7.08%
  Platelet: 392.20 ± 11.16 ×10^3/μL
  RBC: 6.92 ± 0.79 ×10^6 μL
  WBC: 11.12 ± 3.69 ×10^3 μL
[1]; [7]
  Hb: 16.40 ± 0.70 g/dL
  Hct: 50.26 ± 1.94%
  Platelet: 307.40 ± 6.02 ×10^3/μL
  WBC: 7.75 ± 2.04 ×10^3 μL
[1]; [8]
  Hb: 16.16 ± 2.15 g/dL
  Hct: 46.76 ± 6.13%
  Platelet: 299.10 ± 7.65 ×10^3/μL
  RBC: 6.55 ± 1.08 ×10^6 μL
  WBC: 10.01 ± 3.35 ×10^3 μL
[1]; 1 mg/kg, p<0.05
  platelet (PLT) count compared to the control (OC): significantly lower than that of the control (OC)
[1]; 10-week trial period, except for the platelet (PLT) count
  hematological indicators, differences between the administration groups: no significant differences
[2]; obese dogs, 0.2 mg/kg
  C-reactive protein (CRP) compared to the control (OC): significantly decreased
  alanine aminotransferase (ALT) compared to the control (OC): significantly decreased
  alkaline phosphatase (ALP) compared to the control (OC): significantly decreased
  creatine phosphokinase (CPK) compared to the control (OC): significantly decreased
  serum gamma-glutamyl transpeptidase (GGT) compared to the control (OC): significantly decreased
  serum total cholesterol (TC) compared to the control (OC): lower than those of the control (OC)
  triglyceride (TG) concentration compared to the control (OC): lower than those of the control (OC)
[2]; obese dogs, 1 mg/kg
  glucose (GLU) concentration compared to the control (OC): significantly lower
[2]; obese dogs, 0.2, 0.5 and 1 mg/kg groups
  serum triglyceride (TG) concentrations compared to the control: significantly lower than that of the control
[2]; obese dogs, all administration groups
  fasting glucose compared to the control (OC): decreased compared to the control (OC)
[2]; [9]
  ALB: 3.48 ± 0.42 g/dL
  ALP: 84.60 ± 63.96 IU/L
  ALT: 18.84 ± 4.00 IU/L
  AST: 31.00 ± 1.83 IU/L
  BUN: 18.70 ± 10.29 mg/dL
  CPK: 111.12 ± 30.97 IU/L
  CRE: 0.78 ± 0.21 mg/dL
  GGT: 7.80 ± 1.64 IU/L
  Glu: 107.20 ± 10.85 mg/dL
  TC: 183.84 ± 36.01 mg/dL
  TP: 6.78 ± 0.66 g/dL
[2]; obese dogs, 0.2 mg/kg once a day oral for 8 weeks, 0.2 mg/kg
  TG: 142.00 ± 95.55 mg/dL
[2]; obese dogs, 0.2 mg/kg once a day oral for 8 weeks, listed as enavogliflozin, 0.2 mg/kg
  TG: 142.00 ± 95.55 mg/dL
[2]; [10]
  ALB: 2.95 ± 0.19 g/dL
  ALP: 146.20 ± 121.67 IU/L
  ALT: 36.80 ± 14.43 IU/L
  AST: 31.84 ± 12.92 IU/L
  BUN: 22.25 ± 8.64 mg/dL
  CPK: 136.50 ± 42.99 IU/L
  CRE: 0.82 ± 0.15 mg/dL
  GGT: 9.46 ± 5.37 IU/L
  Glu: 97.77 ± 10.19 mg/dL
  TC: 298.00 ± 71.14 mg/dL
  TP: 6.43 ± 0.32 g/dL
[2]; obese dogs, 0.5 mg/kg once a day oral for 8 weeks, 0.5 mg/kg
  TG: 133.86 ± 70.19 mg/dL
[2]; obese dogs, 0.5 mg/kg once a day oral for 8 weeks, listed as enavogliflozin, 0.5 mg/kg
  TG: 133.86 ± 70.19 mg/dL
[2]; [11]
  ALB: 2.92 ± 0.29 g/dL
  ALP: 186.20 ± 184.59 IU/L
  ALT: 38.60 ± 19.72 IU/L
  AST: 110.00 ± 167.92 IU/L
  BUN: 23.44 ± 13.17 mg/dL
  CPK: 260.40 ± 126.79 IU/L
  CRE: 0.92 ± 0.36 mg/dL
  GGT: 21.60 ± 29.36 IU/L
  Glu: 94.00 ± 13.47 mg/dL
  TC: 309.00 ± 129.40 mg/dL
  TP: 6.14 ± 0.54 g/dL
[2]; obese dogs, 1 mg/kg once a day oral for 8 weeks, 1 mg/kg
  TG: 282.60 ± 419.03 mg/dL
[2]; obese dogs, 1 mg/kg once a day oral for 8 weeks, listed as enavogliflozin, 1 mg/kg
  TG: 282.60 ± 419.03 mg/dL
[3]; 0.5 mg/kg
  insulin concentration compared to the control (OC): significantly lower
[3]; all administration groups
  serum insulin concentration compared to the control (OC): decreased compared to the control (OC)
[3]; [6]
  Insulin: 126.60 ± 15.45 ng/mL
[3]; [7]
  Insulin: 99.82 ± 18.48 ng/mL
[3]; [8]
  Insulin: 110.75 ± 21.96 ng/mL
[4]; 0.2 mg/kg once a day oral for 8 weeks, week 0
  Change rates of food consumption: 100.00 ± 0.00%
[4]; 0.2 mg/kg once a day oral for 8 weeks, week 2
  Change rates of food consumption: 126.52 ± 5.48 %
[4]; 0.2 mg/kg once a day oral for 8 weeks, week 4
  Change rates of food consumption: 146.64 ± 5.37 %
[4]; 0.2 mg/kg once a day oral for 8 weeks, week 6
  Change rates of food consumption: 153.71 ± 4.11 %
[4]; 0.2 mg/kg once a day oral for 8 weeks, week 8
  Change rates of food consumption: 168.32 ± 4.80 %
[4]; 0.2 mg/kg once a day oral for 8 weeks, week 10, 0.2 mg/kg
  Change rates of food consumption: 166.59 ± 4.72 %
[4]; 0.2 mg/kg once a day oral for 8 weeks, week 10, listed as enavogliflozin, 0.2 mg/kg
  Change rates of food consumption: 166.59±4.72%
[4]; 0.2 mg/kg, p<0.001
  feed intake compared to the control (OC): significantly increased
[4]; 0.5 mg/kg once a day oral for 8 weeks, week 0
  Change rates of food consumption: 100.00 ± 0.00%
[4]; 0.5 mg/kg once a day oral for 8 weeks, week 2
  Change rates of food consumption: 95.13 ± 1.67 %
[4]; 0.5 mg/kg once a day oral for 8 weeks, week 4
  Change rates of food consumption: 92.34 ± 2.10 %
[4]; 0.5 mg/kg once a day oral for 8 weeks, week 6
  Change rates of food consumption: 92.30 ± 1.60 %
[4]; 0.5 mg/kg once a day oral for 8 weeks, week 8
  Change rates of food consumption: 93.64 ± 1.67 %
[4]; 0.5 mg/kg once a day oral for 8 weeks, week 10, 0.5 mg/kg
  Change rates of food consumption: 98.47 ± 1.44%
[4]; 0.5 mg/kg once a day oral for 8 weeks, week 10, listed as enavogliflozin, 0.5 mg/kg
  Change rates of food consumption: 98.47±1.44%
[4]; 0.5 mg/kg
  feed intake compared to the control (OC): decreased
[4]; 1 mg/kg once a day oral for 8 weeks, week 0
  Change rates of food consumption: 100.00 ± 0.00%
[4]; 1 mg/kg once a day oral for 8 weeks, week 2
  Change rates of food consumption: 100.80 ± 4.20%
[4]; 1 mg/kg once a day oral for 8 weeks, week 4
  Change rates of food consumption: 116.02 ± 3.09 %
[4]; 1 mg/kg once a day oral for 8 weeks, week 6
  Change rates of food consumption: 121.84 ± 2.50 %
[4]; 1 mg/kg once a day oral for 8 weeks, week 8
  Change rates of food consumption: 121.88 ± 2.36 %
[4]; 1 mg/kg once a day oral for 8 weeks, week 10, 1 mg/kg
  Change rates of food consumption: 123.15 ± 2.45 %
[4]; 1 mg/kg once a day oral for 8 weeks, week 10, listed as enavogliflozin, 1 mg/kg
  Change rates of food consumption: 123.15±2.45%
[4]; 1 mg/kg, p<0.001
  feed intake compared to the control (OC): significantly increased
[5]; normal female beagles, 1 mg/kg/day oral
  body weight decrease compared to the control: 19.6%
[5]; normal female beagles, 3 mg/kg/day oral
  body weight decrease compared to the control: 18.5%
[5]; normal female beagles, 6 mg/kg/day oral
  body weight decrease compared to the control: 33.2%
[5]; normal male beagles, 1 mg/kg/day oral
  body weight decrease compared to the control: 17.7%
[5]; normal male beagles, 3 mg/kg/day oral
  body weight decrease compared to the control: 16%
[5]; normal male beagles, 6 mg/kg/day oral
  body weight decrease compared to the control: 29.9%
